Results: patent US6514975B1, “Anti-inflammatory piperazinyl-benzyl-tetrazole derivatives and intermediates thereof” (Pfizer Inc, priority 1997, dated 2003)

What was measured:
[1] = target: T1, delta opioid receptor, mouse vas deferens (MVD)(δ) (Mus musculus, UniProt P32300); experiment: delta opioid agonist activity in mouse vas deferens (inhibition of electrically-induced contractions); settings: isolated mouse vas deferens; inhibition of electrically-induced contractions in the presence of 300 nM mu-selective antagonist CTOP; measure of δ agonism
T1 construct: tissue Charles River; host or cells: isolated mouse vas deferens (DC1 strain)
T1 sequence (P32300 whole entry): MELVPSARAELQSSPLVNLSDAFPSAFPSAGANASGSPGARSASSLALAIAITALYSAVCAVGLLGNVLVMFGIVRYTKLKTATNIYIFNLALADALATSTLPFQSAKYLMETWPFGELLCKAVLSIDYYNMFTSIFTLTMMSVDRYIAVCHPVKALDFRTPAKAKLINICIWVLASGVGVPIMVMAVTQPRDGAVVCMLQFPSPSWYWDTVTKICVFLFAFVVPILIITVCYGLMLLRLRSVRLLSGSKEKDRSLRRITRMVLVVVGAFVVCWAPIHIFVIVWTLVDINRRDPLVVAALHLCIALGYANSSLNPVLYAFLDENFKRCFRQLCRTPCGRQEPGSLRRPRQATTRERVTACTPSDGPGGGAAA
Method: Opioid (delta, mu and kappa) activity was studied in two isolated tissues, the mouse vas deferens (MVD)(δ) and the guinea-pig myentric plexus with attached longitudinal muscle (GPMP)(μ and κ).
MVD (DC1 strain, Charles River, 25-35 g) were suspended in 15 ml organ baths containing Mg^++-free Krebs' buffer of the following composition (mM): NaCl, 119; KCl, 4.7; NaHCO3, 25; KH2PO4, 1.2; CaCl2, 2,5 and glucose, 11. The buffer was gassed with 95% O2 and 5% CO2. The tissues were suspended between platinum electrodes, attached to an isometric transducer with 500 mg tension and stimulated with 0.03 Hz pulses of 1-msec pulse-width at supramaxinal voltage. IC50 values were determined by the regression analysis of concentration-response curves for inhibition of electrically-induced contractions in the presence of 300 nM of the mu-selective antagonist CTOP. This test is a measure of δ agonism.
The delta opioid agonist activity of a number of compounds were determined in mouse vas deferens (as described above) with the following results: […]

Row | melting point | Compound | IC50 [1]
1 | 137 to 140 °C | C=CCN1C[C@H](C)N([C@H](c2ccc(-c3nnn(CCOCC(=O)O)n3)cc2)c2cccc(O)c2)C[C@H]1C | –
2 | – | C=CCN1C[C@H](C)N([C@H](c2ccc(-c3nnn[nH]3)cc2)c2cccc(O)c2)C[C@H]1C [Example 1, (+)-5-{4-[(R)-α-(2(S),5(R)-4-Allyl-2,5-dimethyl-1-piperazinyl)-3-hydroxybenzyl]phenyl}-1H-tetrazole] | 0.2 nM
3 | – | C[C@@H]1CN([C@H](c2ccc(-c3nnn[nH]3)cc2)c2cccc(O)c2)[C@@H](C)CN1Cc1ccccc1 [Example 4, (−)-5-{4-[(R)-α-(2(S),5(R)-4-benzyl-2,5-dimethyl-1-piperazinyl)-3-hydroxybenzyl]phenyl}-1H-tetrazole] | 0.0126 nM
4 | – | C=CCN1C[C@H](C)N([C@H](c2ccc(-c3nnn(CCCCC(=O)O)n3)cc2)c2cccc(O)c2)C[C@H]1C [Example 42, (+)-5-(5-{4-[(R)-α-(2(S),5(R)-4-Allyl-2,5-dimethyl-1-piperazinyl)-3-hydroxybenzyl]phenyl}-2-tetrazolyl)valeric Acid] | 0.316 nM
